Results from patent US11992011B2, “Compounds for controlling plant pathogens” (VIB VZW, priority 2017, dated 2024).

Key:
[1] = test system: OsWRKY45; assay: qRT-PCR in rice roots, OsWRKY45 (Example 19); assay type: in vivo, Oryza sativa; details: rice cv. Bomba root tissue; 100 μM; harvested 13 days after germination; N=3 pools
Protocol: (§1) After quality control, qPCR was carried out.

[2] = test system: OsPAL6; assay: qRT-PCR in rice roots, OsPAL6 (Example 19); assay type: in vivo, Oryza sativa; details: rice cv. Bomba root tissue; 100 μM; harvested 13 days after germination; N=3 pools
Protocol: as §1

[3] = test system: Meloidogyne graminicola; assay: Meloidogyne graminicola infection in wheat cv. Sahara (Example 5); assay type: in vivo; details: infected wheat, foliar spray; for Number of galls per AR / Number of galls: n = 9; for Number of galls: per root system; for reduction in gall numbers: vs control
Protocol: For Examples 1, 5 and 10, seeds of the winter wheat cultivar Sahara (Aveve Agrarisch, Landen, Belgium) were used. Seeds were washed in a 10% ethanol solution to remove any residual traces of fungicide and then germinated on wet paper at room temperature for four days; seeds were transferred to SAP tubes and placed in a growth chamber (25° C., 16 hours per day of light). Plants were watered with 8 ml of half-strength Hoagland solution every two days for the first ten days and with 8 ml of full strength Hoagland solution every two days afterwards.
Unless otherwise mentioned, all chemicals for nematode experiments were applied as a foliar spray consisting of the target compound at a concentration of 300 μM together with 0.1% (v/v) Tween 20 surfactant (Calbiochem) in distilled water. Again unless otherwise mentioned, all treatments for the nematode experiments were carried out three times: one and eight days before pathogen inoculation and seven days after pathogen inoculation. In all cases, plants were sprayed until run-off with an atomizer.
(§2) Infection experiments with M. graminicola were performed by inoculating host plants 14 days after transfer to SAP by introducing the desired amount of J2 juveniles next to the root system using a micro pipette. Rice plants (cv. Nipponbare or Kitaake) were inoculated with 250 J2 juveniles per plant; wheat plants (cv. Sahara) were inoculated with 600 J2 juveniles per plant. Plants were harvested 14 days after inoculation. At this point, the plants were phenotyped by measuring the shoot and root length with a ruler, counting the number of adventitious roots and in some experiments by measuring leaf area using the EasyLeafArea software (Easlon and Bloom, 2014) and by determining shoot dry mass after 72 hours of drying in an oven at 70° C. Root systems were then stained in acid fuchsine as described in (Byrd et al., 1983) and left to destain in glycerol with 1 ml/l fuming HCl added for approximately ten days. The number of galls and nematodes was then counted using a binocular microscope.
In this experiment, the compounds PA, MDCA and 4-IBA were tested as foliar spray in the monocot staple crop wheat (Triticum aestivum, cv. Sahara) against the nematode Meloidogyne graminicola. The bacterial compound LPS (lipopolysaccharide), which is a potent inducer of the plant immune system and a known priming agent (Desaki et al., 2006), was also included as a positive control.

[4] = test system: OsC4H; assay: qRT-PCR in rice roots, OsC4H (Example 19); details: rice cv. Bomba root tissue; 100 μM; harvested 13 days after germination; N=3 pools
[5] = test system: Meloidogyne graminicola; assay: Meloidogyne graminicola infection in rice, second experiment (Example 4); assay type: in vivo; details: infected rice, 100 μM; for median number of galls lower compared to untreated controls: 13 days after infection; for plants in which necrosis was present: absent in control plants; for Gall number: harvested 13 days after inoculation; for Gall number / Fraction of empty galls / Galls per adventitious root / Number of J2 / Number of J3 + J4 / Number of adults (with eggs) / Number of adults (without eggs) / Total nematodes: median (IQR); for Likelihood of necrosis: value ± spread
Protocol: (§3) Seeds were germinated on wet tissue paper at 30° C. in the dark for three days, followed by transfer to individual PVC tubes (for nematode infection) containing SAP (Reversat et al., 1999). SAP (sand-absorbent polymer) is a mixture of fine silica sand and ultra-absorbent acrylic copolymer (DCM AquaPerla, DSM, Grobbendonk, Belgium) in a ratio of 1 kg sand to 1.5 g of dry copolymer.
(§4) Before use, each tube was washed in soapy water and dried in an oven at 70° C. for two days. […] The first two days after transfer, the tubes were covered with a polyethylene film (Saran Film, Dow Chemicals, Midland, USA) to prevent excessive evaporation. Seedlings were watered three times per week with 8 ml of Hoagland solution (Hoagland, 1938).
(§5) M. graminicola was extracted from infected Echinocloa crus-galli roots grown in potting soil at 25° C. Roots were washed until most soil was removed, after which they were cut into short fragments (with special care taken to cut open any outwardly visible galls). The cut material was put in […] pore diameter sieves which were put into a tap water bath at room temperature for three days. The water was then poured over a […] mesh sieve. The sieve surface was washed with approximately 50 ml of non-demineralized water, which was collected into a beaker before it could seep through the sieve.
(§6) The number of nematodes in five 100 μl samples taken from the nematode suspension was counted under a stereo microscope and averaged to determine inoculum concentration. Each plant (grown per the protocol outlined in the previous section) was then inoculated by injecting the desired number of nematodes in the SAP surrounding the root system using a micro-pipette.
as §2, with “microscope. […]” for “microscope.”
The second experiment was methodologically similar to the first. This time, plants were grown for 15 days before inoculation with 210 nematodes on average and harvested 13 days after inoculation. […]

[6] = test system: OsICS1; assay: qRT-PCR in rice roots, OsICS1 (Example 19); assay type: in vivo, Oryza sativa; details: rice cv. Bomba root tissue; 100 μM; harvested 13 days after germination; N=3 pools
Protocol: as §1

[7] = test system: Meloidogyne graminicola; assay: Meloidogyne graminicola infection in rice, first experiment (Example 3); assay type: in vivo; details: infected rice, 100 μM, median (IQR), n = 8; for Gall number: harvested twelve days after infection; for Galls per AR: per adventitious root
Protocol: as §3, §4, §5, §6, §2
Rice plants were germinated for three days, transferred to SAP and grown for twelve days. After twelve days, 240 M. graminicola J2 nematodes on average were added to each plant. Plants were harvested twelve days after infection and roots were stained with acid fuchsine to visualize galls and nematodes.

SMILES | Fold change vs. control, OsWRKY45 expression [1] | Fold change vs. control, OsPAL6 expression [2] | Number of galls per AR [3] | Number of galls [3] | reduction in gall numbers [3] [%] | Fold change vs. control, OsC4H expression [4] | median number of galls lower compared to untreated controls [5] [%] | plants in which necrosis was present [5] | Gall number [5] | Fraction of empty galls [5] | Galls per adventitious root [5] | Number of J2 [5] | Number of J3 + J4 [5] | Number of adults (with eggs) [5] | Number of adults (without eggs) [5] | Total nematodes [5] | Likelihood of necrosis [5] | Fold change vs. control, OsICS1 expression [6] | Gall number [7] | Empty galls [7] | further results
O=C(O)/C=C/c1ccc2c(c1)OCO2 [MDCA, 3,4-methylenedioxycinnamic acid] | 1.67 | 1.40 | 2.4 ± 0.8 | 24.6 ± 6.3 | −35 | 3.73 | 28 | roughly 75% | 8.0 (IQR = 1.0) | 0.11 (IQR = 0.03) | 0.80 (IQR = 0.17) | 0.0 (IQR = 0.0) | 7.0 (IQR = 5.0) | 0.0 (IQR = 1.0) | 10.0 (IQR = 2.0) | 17.0 (IQR = 5.0) | 0.78 ± 0.44 | 1.73 | 11.5 (IQR = 3.3) | 0.5 (IQR = 1.3) | Fraction of small galls [7]: 0.84 (IQR = 0.13); Number of J2 [7]: 7.5 (IQR = 8.0); Number of J3 + J4 [7]: 8.0 (IQR = 8.3); Number of adults (with eggs) [7]: 3.0 (IQR = 13.3); Number of adults (without eggs) [7]: 20.0 (IQR = 7.3); Total nematodes [7]: 41.5 (IQR = 14.3); Galls per AR [7]: 0.78 (IQR = 0.22)
O=C(O)c1ccc2c(c1)OCO2 [PA, Piperonylic acid] | 1.30 | 1.26 | 2.5 ± 1.1 | 25.6 ± 6.5 | −33 | 9.87 | 36 | roughly 75% | 7.0 (IQR = 1.8) | 0.13 (IQR = 0.17) | 0.62 (IQR = 0.13) | 0.0 (IQR = 1.0) | 8.0 (IQR = 2.5) | 0.0 (IQR = 0.0) | 5.0 (IQR = 1.8) | 13.5 (IQR = 2.5) | 0.70 ± 0.48 | 1.36 | 12.5 (IQR = 4.0) | 0.0 (IQR = 1.0) | Fraction of small galls [7]: 0.76 (IQR = 0.08); Number of J2 [7]: 9.0 (IQR = 8.3); Number of J3 + J4 [7]: 5.0 (IQR = 5.5); Number of adults (with eggs) [7]: 0.5 (IQR = 1.3); Number of adults (without eggs) [7]: 19.5 (IQR = 11.8); Total nematodes [7]: 32.5 (IQR = 17.8); Galls per AR [7]: 0.83 (IQR = 0.29)
